Consider two substances from publication PMC3072031 (Analytical chemistry, 2010).

One assay deals with detection conjugate. In kind it is binding. Conditions: deduced from equation (1).
The next assay has as its target Aβ(1–40) mAb. Conditions: reported value; ref [41]; cited from earlier work.

With “Aβ(1–40): amyloid-β peptide, purchased from American Peptide Inc.; endogenous peptide in human CSF samples”, on detection conjugate, the “KD deduced from Langmuir isotherm, in words” value was “nanomolar level”. Besides, the “KD between the Aβ(1–40) mAb and Aβ(1–40), in words” value at Aβ(1–40) mAb is “nanomolar level”.
Take “Aβ(1–42): 42-residue-long amyloid-β peptide, purchased from American Peptide Inc.; endogenous peptide in human CSF samples”: the “KD deduced from Langmuir isotherm, in words” value on detection conjugate was “nanomolar level”.
